According to US20180200257A1, “METHODS FOR THE TREATMENT OF INFLAMMATORY DISORDERS” (Galapagos NV, priority 2015, published 2018):

System: subjects with moderately to severely active RA who have an inadequate response to methotrexate (MTX)
Test: Study 2 (monotherapy) - Alanine Aminotransferase (ALT) levels
Assay type: in vivo, human
Description: Randomized, double-blind, placebo-controlled, multicenter, phase IIb dose finding study of Compound 1 (dosed as a [Compound 1:HCl:3H2O]) administered for 24 weeks as monotherapy to subjects with moderately to severely active rheumatoid arthritis who have an inadequate response to methotrexate alone
Double-blind, placebo-controlled, monotherapy study in subjects with moderately to severely active RA who have an inadequate response to methotrexate (MTX) (oral or parenteral).
280 subjects randomized to one of 3 doses of Compound 1 (dosed as a [Compound 1:HCl:3H2O]) or to placebo, given once daily (q.d.).
Twelve weeks of treatment with Compound 1 (dosed as a [Compound 1:HCl:3H2O]) at 50 mg, 100 mg, or 200 mg q.d.; or placebo. At Week 12, all subjects on placebo and the subjects on the 50 mg dose who have not achieved 20% improvement in swollen joint count (SJC66) and tender joint count (TJC68) will be assigned to 100 mg q.d. in a blinded fashion and will continue treatment until Week 24. Subjects in the other groups will maintain their randomized treatment until Week 24.
ALT levels determination is available at Quest Diagnostics, Clinical Trials, Quest House, 125-135 Staines Road, Hounslow, Middlesex, TW3 3JB, United Kingdom under Catalogue n#84460.
ALT catalyzes the exchange of the amino group of alanine with the oxogroup of 2-ketoglutarate to form pyruvate and glutamate. In the presence of lactic dehydrogenase, pyruvate reacts with NADH to form NAD+, measured spectrophotometrically. Guidelines for the ALT value have been issued by the association for Clinical Biochemistry and Laboratory Medicine, 130-132 Tooley Street LONDON SE1 2TU, united Kingdom, wherein the ALT value should be below 34 U/l in Female and below 52 U/L in male.
Subjects in the other groups maintained their randomized treatment until Week 24.

[1] = 12 weeks results, 50 mg q.d., week 1
[2] = 12 weeks results, 50 mg q.d., week 2
[3] = 12 weeks results, 50 mg q.d., week 4
[4] = 12 weeks results, 50 mg q.d., week 8
[5] = 12 weeks results, 50 mg q.d., week 12
[6] = 12 weeks results, 100 mg q.d., week 1
[7] = 12 weeks results, 100 mg q.d., week 2
[8] = 12 weeks results, 100 mg q.d., week 4
[9] = 12 weeks results, 100 mg q.d., week 8
[10] = 12 weeks results, 100 mg q.d., week 12
[11] = 12 weeks results, 200 mg q.d., week 1
[12] = 12 weeks results, 200 mg q.d., week 2
[13] = 12 weeks results, 200 mg q.d., week 4
[14] = 12 weeks results, 200 mg q.d., week 8
[15] = 12 weeks results, 200 mg q.d., week 12
[16] = 24 weeks results, 50 mg q.d. non responders switching to 100 mg q.d. at week 12, week 1
[17] = 24 weeks results, 50 mg q.d. non responders switching to 100 mg q.d. at week 12, week 2
[18] = 24 weeks results, 50 mg q.d. non responders switching to 100 mg q.d. at week 12, week 4
[19] = 24 weeks results, 50 mg q.d. non responders switching to 100 mg q.d. at week 12, week 8
[20] = 24 weeks results, 50 mg q.d. non responders switching to 100 mg q.d. at week 12, week 12
[21] = 24 weeks results, 50 mg q.d. non responders switching to 100 mg q.d. at week 12, week 16
[22] = 24 weeks results, 50 mg q.d. non responders switching to 100 mg q.d. at week 12, week 20
[23] = 24 weeks results, 50 mg q.d. non responders switching to 100 mg q.d. at week 12, week 24
[24] = 24 weeks results, 50 mg q.d. responders, week 1
[25] = 24 weeks results, 50 mg q.d. responders, week 2
[26] = 24 weeks results, 50 mg q.d. responders, week 4
[27] = 24 weeks results, 50 mg q.d. responders, week 8
[28] = 24 weeks results, 50 mg q.d. responders, week 12
[29] = 24 weeks results, 50 mg q.d. responders, week 16
[30] = 24 weeks results, 50 mg q.d. responders, week 20
[31] = 24 weeks results, 50 mg q.d. responders, week 24
[32] = 24 weeks results, 100 mg q.d., week 1
[33] = 24 weeks results, 100 mg q.d., week 2
[34] = 24 weeks results, 100 mg q.d., week 4
[35] = 24 weeks results, 100 mg q.d., week 8
[36] = 24 weeks results, 100 mg q.d., week 12
[37] = 24 weeks results, 100 mg q.d., week 16
[38] = 24 weeks results, 100 mg q.d., week 20
[39] = 24 weeks results, 100 mg q.d., week 24
[40] = 24 weeks results, 200 mg q.d., week 1
[41] = 24 weeks results, 200 mg q.d., week 2
[42] = 24 weeks results, 200 mg q.d., week 4
[43] = 24 weeks results, 200 mg q.d., week 8
[44] = 24 weeks results, 200 mg q.d., week 12
[45] = 24 weeks results, 200 mg q.d., week 16
[46] = 24 weeks results, 200 mg q.d., week 20
[47] = 24 weeks results, 200 mg q.d., week 24
[48] = 24 weeks results, placebo switching to 100 mg q.d. at week 12, week 16
[49] = 24 weeks results, placebo switching to 100 mg q.d. at week 12, week 20
[50] = 24 weeks results, placebo switching to 100 mg q.d. at week 12, week 24

## O=C(Nc1nc2cccc(-c3ccc(CN4CCS(=O)(=O)CC4)cc3)n2n1)C1CC1 [Compound 1, cyclopropanecarboxylic acid {5-[4-(1,1-dioxo-thiomorpholin-4-ylmethyl)-phenyl]-[1,2,4]triazolo[1,5-a]pyridin-2-yl}-amide]
[1]
  Study 2 - ALT Mean CFB: −1.4 IU/L
  Study 2 - ALT Mean percentage CFB: −1.29%
[2]
  Study 2 - ALT Mean CFB: −2.6 IU/L
  Study 2 - ALT Mean percentage CFB: −3.25%
[3]
  Study 2 - ALT Mean CFB: −2.2 IU/L
  Study 2 - ALT Mean percentage CFB: −3.73%
[4]
  Study 2 - ALT Mean CFB: −3.0 IU/L
  Study 2 - ALT Mean percentage CFB: −0.73%
[5]
  Study 2 - ALT Mean CFB: −1.4 IU/L
  Study 2 - ALT Mean percentage CFB: 1.77%
[6]
  Study 2 - ALT Mean CFB: 0.4 IU/L
  Study 2 - ALT Mean percentage CFB: 13.98%
[7]
  Study 2 - ALT Mean CFB: 0.7 IU/L
  Study 2 - ALT Mean percentage CFB: 13.25%
[8]
  Study 2 - ALT Mean CFB: 0.3 IU/L
  Study 2 - ALT Mean percentage CFB: 17.82%
[9]
  Study 2 - ALT Mean CFB: −0.5 IU/L
  Study 2 - ALT Mean percentage CFB: 7.83%
[10]
  Study 2 - ALT Mean CFB: 1.3 IU/L
  Study 2 - ALT Mean percentage CFB: 14.61%
[11]
  Study 2 - ALT Mean CFB: −1.8 IU/L
  Study 2 - ALT Mean percentage CFB: −0.92%
[12]
  Study 2 - ALT Mean CFB: −1.1 IU/L
  Study 2 - ALT Mean percentage CFB: 1.07%
[13]
  Study 2 - ALT Mean CFB: −1.4 IU/L
  Study 2 - ALT Mean percentage CFB: 4.71%
[14]
  Study 2 - ALT Mean CFB: −0.8 IU/L
  Study 2 - ALT Mean percentage CFB: 8.41%
[15]
  Study 2 - ALT Mean CFB: −1.1 IU/L
  Study 2 - ALT Mean percentage CFB: 5.69%
[16]
  Study 2 - ALT Mean CFB: −0.1 IU/L
  Study 2 - ALT Mean percentage CFB: 0.97%
[17]
  Study 2 - ALT Mean CFB: −0.2 IU/L
  Study 2 - ALT Mean percentage CFB: −0.54%
[18]
  Study 2 - ALT Mean CFB: 0.6 IU/L
  Study 2 - ALT Mean percentage CFB: 4.48%
[19]
  Study 2 - ALT Mean CFB: −1.3 IU/L
  Study 2 - ALT Mean percentage CFB: −4.46%
[20]
  Study 2 - ALT Mean CFB: −0.9 IU/L
  Study 2 - ALT Mean percentage CFB: −1.26%
[21]
  Study 2 - ALT Mean CFB: 0.9 IU/L
  Study 2 - ALT Mean percentage CFB: 6.27%
[22]
  Study 2 - ALT Mean CFB: 0.3 IU/L
  Study 2 - ALT Mean percentage CFB: 4.86%
[23]
  Study 2 - ALT Mean CFB: 3.2 IU/L
  Study 2 - ALT Mean percentage CFB: 22.47%
[24]
  Study 2 - ALT Mean CFB: −1.7 IU/L
  Study 2 - ALT Mean percentage CFB: −1.89%
[25]
  Study 2 - ALT Mean CFB: −3.3 IU/L
  Study 2 - ALT Mean percentage CFB: −3.98%
[26]
  Study 2 - ALT Mean CFB: −3.0 IU/L
  Study 2 - ALT Mean percentage CFB: −5.93%
[27]
  Study 2 - ALT Mean CFB: −3.4 IU/L
  Study 2 - ALT Mean percentage CFB: 0.30%
[28]
  Study 2 - ALT Mean CFB: −1.6 IU/L
  Study 2 - ALT Mean percentage CFB: 2.63%
[29]
  Study 2 - ALT Mean CFB: −0.2 IU/L
  Study 2 - ALT Mean percentage CFB: 17.03%
[30]
  Study 2 - ALT Mean CFB: −0.5 IU/L
  Study 2 - ALT Mean percentage CFB: 8.38%
[31]
  Study 2 - ALT Mean CFB: −0.2 IU/L
  Study 2 - ALT Mean percentage CFB: 16.54%
[32]
  Study 2 - ALT Mean CFB: 0.4 IU/L
  Study 2 - ALT Mean percentage CFB: 13.98%
[33]
  Study 2 - ALT Mean CFB: 0.7 IU/L
  Study 2 - ALT Mean percentage CFB: 13.25%
[34]
  Study 2 - ALT Mean CFB: 0.3 IU/L
  Study 2 - ALT Mean percentage CFB: 17.82%
[35]
  Study 2 - ALT Mean CFB: −0.5 IU/L
  Study 2 - ALT Mean percentage CFB: 7.83%
[36]
  Study 2 - ALT Mean CFB: 1.3 IU/L
  Study 2 - ALT Mean percentage CFB: 14.61%
[37]
  Study 2 - ALT Mean CFB: 4.1 IU/L
  Study 2 - ALT Mean percentage CFB: 25.66%
[38]
  Study 2 - ALT Mean CFB: 1.8 IU/L
  Study 2 - ALT Mean percentage CFB: 37.63%
[39]
  Study 2 - ALT Mean CFB: 0.4 IU/L
  Study 2 - ALT Mean percentage CFB: 20.33%
[40]
  Study 2 - ALT Mean CFB: −1.8 IU/L
  Study 2 - ALT Mean percentage CFB: −0.92%
[41]
  Study 2 - ALT Mean CFB: −1.1 IU/L
  Study 2 - ALT Mean percentage CFB: 1.07%
[42]
  Study 2 - ALT Mean CFB: −1.4 IU/L
  Study 2 - ALT Mean percentage CFB: 4.71%
[43]
  Study 2 - ALT Mean CFB: −0.8 IU/L
  Study 2 - ALT Mean percentage CFB: 8.41%
[44]
  Study 2 - ALT Mean CFB: −1.1 IU/L
  Study 2 - ALT Mean percentage CFB: 5.69%
[45]
  Study 2 - ALT Mean CFB: 0.4 IU/L
  Study 2 - ALT Mean percentage CFB: 17.47%
[46]
  Study 2 - ALT Mean CFB: −0.6 IU/L
  Study 2 - ALT Mean percentage CFB: 6.69%
[47]
  Study 2 - ALT Mean CFB: −1.3 IU/L
  Study 2 - ALT Mean percentage CFB: 5.83%
[48]
  Study 2 - ALT Mean CFB: 0.4 IU/L
  Study 2 - ALT Mean percentage CFB: 15.03%
[49]
  Study 2 - ALT Mean CFB: 0.8 IU/L
  Study 2 - ALT Mean percentage CFB: 17.28%
[50]
  Study 2 - ALT Mean CFB: 0.9 IU/L
  Study 2 - ALT Mean percentage CFB: 18.10%
